In PubChem BioAssay AID1963420 (Molecular Pharmacology Branch, DTP, NCI, 2024):

Tested on: 494315-158-R-J1-PDC complex spheroid growth, percent test/control
Experiment: Anticancer human tumor 494315-158-R-J1-PDC patient-derived soft tissue sarcoma cell line growth inhibition [Asc]
Conditions: for IC50: curve of first compound; for viability, T/C: stronger effect = lower value; active means viability on the fitted dose curve at most 10% of control; inactive means the rest
How it was run: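 Stromal components (HUVEC and hMSC) are co-assembled with the cancer cells into multicellular spheroids. Drugs are then added singly or paired, at concentrations falling by half-log increments from a clinically achievable maximum, capped at 10 microM without known Cmax.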

[1] = second compound 0.1 µM, first compound 0.00316 µM
[2] = second compound 0.1 µM, first compound 0.01 µM
[3] = second compound 0.1 µM, first compound 0.0316 µM
[4] = second compound 0.1 µM, first compound 0.1 µM
[5] = second compound 0.1 µM, first compound 0.316 µM
[6] = second compound 0.1 µM, first compound 1 µM
[7] = second compound 0.316 µM, first compound 0.00316 µM
[8] = second compound 0.316 µM, first compound 0.01 µM
[9] = second compound 0.316 µM, first compound 0.0316 µM
[10] = second compound 0.316 µM, first compound 0.1 µM
[11] = second compound 0.316 µM, first compound 0.316 µM
[12] = second compound 0.316 µM, first compound 1 µM
[13] = second compound 1 µM, first compound 0.00316 µM
[14] = second compound 1 µM, first compound 0.01 µM
[15] = second compound 1 µM, first compound 0.0316 µM
[16] = second compound 1 µM, first compound 0.1 µM
[17] = second compound 1 µM, first compound 0.316 µM
[18] = second compound 1 µM, first compound 1 µM
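Further: compound exposure lasted seven days after spheroids formed for three days.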

CCN1C(C(=O)NC23CCC(C(=O)O)(CC2)CC3)C(c2cccc(Cl)c2F)C2(C(=O)Nc3cc(Cl)ccc32)C12CCCCC2 (stereo not given) + CNC(C)C(=O)NC1CN(S(=O)(=O)c2cccc(S(=O)(=O)N3CCC4CCC(C(=O)NC(c5ccccc5)c5ccccc5)N4C(=O)C(NC(=O)C(C)NC)C3)c2)CCC2CCC(C(=O)NC(c3ccccc3)c3ccccc3)N2C1=O
0.0446 µM: IC50 (second compound 0.316 µM)
> 3 µM: IC50 (second compound 0.01 µM) | IC50 (second compound 0.0316 µM)
< 0.00949 µM: IC50 (second compound 1 µM)
0.539 µM: IC50 (second compound 0.1 µM)
inactive: viability, T/C (second compound 0.01 µM, first compound 0.00949 µM) 66.2% | viability, T/C (second compound 0.01 µM, first compound 0.03 µM) 77.9% | viability, T/C (second compound 0.01 µM, first compound 0.0949 µM) 66.8% | viability, T/C (second compound 0.01 µM, first compound 0.3 µM) 73.7% | viability, T/C (second compound 0.01 µM, first compound 0.949 µM) 67.5% | viability, T/C (second compound 0.01 µM, first compound 3 µM) 57.8% | viability, T/C (second compound 0.0316 µM, first compound 0.00949 µM) 57.3% | viability, T/C (second compound 0.0316 µM, first compound 0.03 µM) 62.8% | viability, T/C (second compound 0.0316 µM, first compound 0.0949 µM) 61.5% | viability, T/C (second compound 0.0316 µM, first compound 0.3 µM) 71% | viability, T/C (second compound 0.0316 µM, first compound 0.949 µM) 60.6% | viability, T/C (second compound 0.0316 µM, first compound 3 µM) 51.4% | viability, T/C (second compound 0.1 µM, first compound 0.00949 µM) 51.4% | viability, T/C (second compound 0.1 µM, first compound 0.03 µM) 53.4% | viability, T/C (second compound 0.1 µM, first compound 0.0949 µM) 56.5% | viability, T/C (second compound 0.1 µM, first compound 0.3 µM) 52% | viability, T/C (second compound 0.1 µM, first compound 0.949 µM) 47.1% | viability, T/C (second compound 0.1 µM, first compound 3 µM) 39.3% | viability, T/C (second compound 0.316 µM, first compound 0.00949 µM) 53.9% | viability, T/C (second compound 0.316 µM, first compound 0.03 µM) 55.3% | viability, T/C (second compound 0.316 µM, first compound 0.0949 µM) 49.8% | viability, T/C (second compound 0.316 µM, first compound 0.3 µM) 39.5% | viability, T/C (second compound 0.316 µM, first compound 0.949 µM) 41% | viability, T/C (second compound 0.316 µM, first compound 3 µM) 45.4% | viability, T/C (second compound 1 µM, first compound 0.00949 µM) 39.6% | viability, T/C (second compound 1 µM, first compound 0.03 µM) 45.6% | viability, T/C (second compound 1 µM, first compound 0.0949 µM) 44.5% | viability, T/C (second compound 1 µM, first compound 0.3 µM) 38.7% | viability, T/C (second compound 1 µM, first compound 0.949 µM) 35.7% | viability, T/C (second compound 1 µM, first compound 3 µM) 33%

CNC(C)C(=O)NC1CN(S(=O)(=O)c2cccc(S(=O)(=O)N3CCC4CCC(C(=O)NC(c5ccccc5)c5ccccc5)N4C(=O)C(NC(=O)C(C)NC)C3)c2)CCC2CCC(C(=O)NC(c3ccccc3)c3ccccc3)N2C1=O (stereo not given) + Cc1c(S(C)(=O)=O)c(-c2cc(F)cc(N3CCN(c4ccc(NS(=O)(=O)c5ccc(NC(CCN6CCC(C(=O)OCCCP(=O)(O)O)CC6)CSc6ccccc6)c(S(=O)(=O)C(F)(F)F)c5)cc4)CC3)c2)c(-c2ccc(Cl)cc2)n1C(C)C
0.0222 µM: IC50 (second compound 10 µM)
0.0188 µM: IC50 (second compound 0.1 µM)
inactive: viability, T/C [1] 66.2% | viability, T/C [2] 57.6% | viability, T/C [3] 42.9% | viability, T/C [4] 36.8% | viability, T/C [5] 29.5% | viability, T/C [6] 26.9% | viability, T/C [7] 46.4% | viability, T/C [8] 47.5% | viability, T/C [9] 39.1% | viability, T/C [10] 39.3% | viability, T/C [11] 26% | viability, T/C [12] 30% | viability, T/C [13] 68.2% | viability, T/C [14] 43.2% | viability, T/C [15] 42.8% | viability, T/C [16] 34.7% | viability, T/C [17] 26.4% | viability, T/C [18] 23.9% | viability, T/C (second compound 3.16 µM, first compound 0.00316 µM) 49% | viability, T/C (second compound 3.16 µM, first compound 0.01 µM) 39.7% | viability, T/C (second compound 3.16 µM, first compound 0.0316 µM) 32.6% | viability, T/C (second compound 3.16 µM, first compound 0.1 µM) 21.8% | viability, T/C (second compound 3.16 µM, first compound 0.316 µM) 36.7% | viability, T/C (second compound 3.16 µM, first compound 1 µM) 19.8% | viability, T/C (second compound 10 µM, first compound 0.00316 µM) 60.3% | viability, T/C (second compound 10 µM, first compound 0.01 µM) 60.5% | viability, T/C (second compound 10 µM, first compound 0.0316 µM) 44.5% | viability, T/C (second compound 10 µM, first compound 0.1 µM) 36.4% | viability, T/C (second compound 10 µM, first compound 0.316 µM) 29.3% | viability, T/C (second compound 10 µM, first compound 1 µM) 29.4%
0.00957 µM: IC50 (second compound 1 µM)
< 0.00316 µM: IC50 (second compound 0.316 µM) | IC50 (second compound 3.16 µM)

O=C(c1ccc(F)c(F)c1Nc1ccc(I)cc1F)N1CC(O)([C@@H]2CCCCN2)C1 + CNC(C)C(=O)NC1CN(S(=O)(=O)c2cccc(S(=O)(=O)N3CCC4CCC(C(=O)NC(c5ccccc5)c5ccccc5)N4C(=O)C(NC(=O)C(C)NC)C3)c2)CCC2CCC(C(=O)NC(c3ccccc3)c3ccccc3)N2C1=O
> 1 µM: IC50 (second compound 0.01 µM) | IC50 (second compound 0.1 µM)
< 0.00316 µM: IC50 (second compound 0.316 µM) | IC50 (second compound 1 µM)
inactive: viability, T/C (second compound 0.01 µM, first compound 0.00316 µM) 83.5% | viability, T/C (second compound 0.01 µM, first compound 0.01 µM) 75.5% | viability, T/C (second compound 0.01 µM, first compound 0.0316 µM) 85.8% | viability, T/C (second compound 0.01 µM, first compound 0.1 µM) 96.7% | viability, T/C (second compound 0.01 µM, first compound 0.316 µM) 97.3% | viability, T/C (second compound 0.01 µM, first compound 1 µM) 62.9% | viability, T/C (second compound 0.0316 µM, first compound 0.00316 µM) 72.8% | viability, T/C (second compound 0.0316 µM, first compound 0.01 µM) 68.3% | viability, T/C (second compound 0.0316 µM, first compound 0.0316 µM) 74.3% | viability, T/C (second compound 0.0316 µM, first compound 0.1 µM) 93.1% | viability, T/C (second compound 0.0316 µM, first compound 0.316 µM) 87.8% | viability, T/C (second compound 0.0316 µM, first compound 1 µM) 47.9% | viability, T/C [1] 53.2% | viability, T/C [2] 61.4% | viability, T/C [3] 65.8% | viability, T/C [4] 87.5% | viability, T/C [5] 92.7% | viability, T/C [6] 59.9% | viability, T/C [7] 46.7% | viability, T/C [8] 60.3% | viability, T/C [9] 57.2% | viability, T/C [10] 67.5% | viability, T/C [11] 72.2% | viability, T/C [12] 58.3% | viability, T/C [13] 47.9% | viability, T/C [14] 52% | viability, T/C [15] 67.1% | viability, T/C [16] 66.3% | viability, T/C [17] 76.2% | viability, T/C [18] 46.7%
0.927 µM: IC50 (second compound 0.0316 µM)
